Nine compounds from PMC5609566, “Elucidation of antimicrobial activity and mechanism of action by N-substituted carbazole derivatives” (Bioorganic & Medicinal Chemistry Letters, 2017) can be followed below.

The target of assay [1] is T1, Mammalian Ca^2+-ATPase (Oryctolagus cuniculus, UniProt P04191).
T1 construct: from tissue; host or cells: rabbit hind leg muscle, sarcoplasmic reticulum membranes (gift, Aarhus University)
In words: Colorimetric ATPase assay, rabbit sarcoplasmic reticulum membranes (SERCA). The class given is biochemical. An excerpt: To investigate the H^+-ATPase inhibitory effect of the compounds we isolated plasma membranes containing H^+-ATPase from S. cerevisiae and C. albicans cells.[15] Plasma membranes isolated from pig kidney as well as endoplasmic reticulum membranes from rabbit hind leg muscle were used to counter-screen compounds for activity against mammalian Na^+,K^+-ATPase and Ca^2+-ATPase, respectively. Prior to their use, fungal plasma membrane batches were validated by determining the maximum ATP hydrolysis activity, the pH optimum of the ATPase activity, and the sensitivity to inhibition by orthovanadate. ATPase activity was determined by a colorimetric assay that measures the amount of inorganic phosphate liberated over time, as described in Kjellerup et al., 2017.[15] Table 2, Table 3, Table 4 list the IC50 values obtained by measuring the concentration dependence of the ATPase activity for the fifteen carbazole compounds with each of the four membrane preparations.
Pma1-containing plasma membranes were prepared from S. cerevisiae RS72 yeast cells that had been transformed with the full-length cDNA of the S. cerevisiae plasma membrane H^+-ATPase isoform PMA1 under control of the PMA1 promoter, using the same procedure as described in Kongstad et al., 2014^1. For the preparation of C. albicans membranes, a 100 ml overnight culture grown in YPD (10 g/L yeast extract (BD, Sparks, MD), 20 g/L Bacto peptone (BD), 20 g/L D-(+)-glucose) was transferred to 1 L YPD and grown for a further 7 h at RT with agitation (150 rpm), followed by cell harvesting and subsequent membrane preparation using the same procedure as described in Kongstad et al., 2014^1. […] Rabbit sarcoplasmic reticulum membranes containing Sarco/Endoplasmic Reticulum Ca^2+ ATPase (SERCA) were kindly provided by Dr. Claus E. Olesen and Dr. Jesper V. Møller, Aarhus University and prepared as described in Andersen et al., 1985^2. Pig kidney Na^+,K^+-ATPase was kindly provided by Dr. Natalya Fedosova, Aarhus University and prepared as described in Klodos et al., 2002^3.
The compound libraries were purchased from Enamine Ltd, Ukraine and Chembridge Corp, USA. ATPase activity was determined by measuring the amount of liberated phosphate from ATP hydrolysis. […] Reactions were initiated by the addition of Na-ATP to a final concentration of 2.5 mM (Pma1 and Na^+,K^+-ATPase) or 5 mM (SERCA), followed by 30 minutes incubation at 30 °C. The amount of liberated phosphate was determined colorimetrically after addition of STOP solution (mixture of L-ascorbic acid, ammonium heptamolybdate tetrahydrate, and HCl to give final concentrations of 65 mM, 2.2 mM, and 189 mM, respectively) with 5 minutes incubation at room temperature (RT) followed by addition of arsenite solution (mixture of NaAsO2, sodium citrate dihydrate, and acetic acid to give final concentrations of 3.1 mM, 28 mM, and 141 mM, respectively). Absorption was measured at 860 nm after an additional 30 minutes incubation at RT.

Assay [2] deals with Candida albicans SC5314. The assay can be described thus: Fungal growth inhibition MIC (MFC). In kind it is cell-based. Conditions: for MIC: Candida albicans SC5314, RPMI-1640; for MFC: Candida albicans SC5314, value in brackets. An excerpt:
(§1) We subsequently assessed the carbazole series for antifungal activity, as described in Kjellerup et al., 2017.[15] Table 2, Table 3, Table 4, Table 5 list the minimum inhibitory concentrations (MIC) and the minimum fungicidal concentrations (MFC) of the fifteen compounds tested against the yeasts Saccharomyces cerevisiae, Candida albicans, C. krusei, and two isolates of C. glabrata (a wild-type strain ATCC 90030 and a clinical azole-resistant isolate Cg003 with increased efflux pump expression[19]), and the molds Aspergillus fumigatus and A. flavus. MIC was defined as the lowest concentration inhibiting visual growth of the microorganism in RPMI-1640 media. […] However, in several cases antifungal activity against molds was minimal, Table 5.
(§2) Compound hits from the library screening were evaluated against baker yeast S. cerevisiae and C. albicans (ATCC 90028). The minimum inhibitory concentration (MIC) was defined as the lowest concentration inhibiting visual growth of the microorganism and this was determined in triplicate. Standard errors were typically less than 5%. MICs for synthesized compounds were determined on the following fungal isolates: Saccharomyces cerevisiae (ATCC 9763), Candida albicans (SC5314), Candida krusei (ATCC 6258), Candida glabrata (ATCC 90030), Aspergillus flavus (ATCC MYA-1005) and Aspergillus fumigatus (ATCC 13073), which were purchased from American Type Culture Collection, and C. glabrata strain Cg003, which was kindly provided by Julius Subik, Comenius University in Bratislava, Slovak Republic. Cg003 is a clinical isolate, characterized to be resistant to fluconazole and itraconazole due to overexpression of the multidrug resistance efflux pumps Cdr1p and Cdr2p^5. The fungal growth assay was performed as described in Kjellerup et al., 2017^6.

Assay [3] has as its system Candida glabrata ATCC 90030. In words: Fungal growth inhibition MIC (MFC). The class given is cell-based. Conditions: Nakaseomyces glabratus, ATCC90030, Candida glabrata ATCC 90030 (wild-type); for MIC: RPMI-1640; for MFC: value in brackets.
Description: as §1, §2

The subject of assay [4] is Candida glabrata Cg003. In words: Fungal growth inhibition MIC (MFC). In kind it is cell-based. Conditions: Nakaseomyces glabratus, Candida glabrata Cg003 (clinical azole-resistant isolate); for MIC: RPMI-1640; for MFC: value in brackets.
Description: as §1, §2

Assay [5] deals with Candida krusei ATCC 6258. The assay can be described thus: Fungal growth inhibition MIC (MFC). The class given is cell-based. Conditions: Pichia kudriavzevii, ATCC6258; for MIC: Candida krusei ATCC 6258, RPMI-1640; for MFC: Candida krusei ATCC 6258, value in brackets.
Description: as §1, §2

The test system of assay [6] is Saccharomyces cerevisiae ATCC 9763. In words: Fungal growth inhibition MIC (MFC). The class given is cell-based. The note with it: ATCC9763; for MIC: Saccharomyces cerevisiae ATCC 9763, RPMI-1640; for MFC: Saccharomyces cerevisiae ATCC 9763, value in brackets.
Description: as §1, §2

Assay [7] has as its system Aspergillus flavus ATCC MYA-1005. The assay can be described thus: Mold growth inhibition. The note with it: Aspergillus flavus ATCC MYA-1005, n=3; read-out: Fungal Growth Inhibition MIC. In kind it is cell-based.
Description: as §1, §2

[8] abbreviates: pH 7, n = 3, read-out: ATP hydrolysis IC50 Mammalian Ca^2+-ATPase.

As usually defined, the IC50 is the concentration that gives 50% inhibition. A word on the MIC: it is the smallest concentration in the dilution series that meets the test's criterion for growth inhibition. By MFC is commonly meant the lowest tested concentration that kills the fungus rather than only halting it.

Values after ≈ are worked out from the molar mass of the structure shown. Where two headings read alike, the source gives them in different places.

T1 sequence (P04191 1-994 isoform P04191-2): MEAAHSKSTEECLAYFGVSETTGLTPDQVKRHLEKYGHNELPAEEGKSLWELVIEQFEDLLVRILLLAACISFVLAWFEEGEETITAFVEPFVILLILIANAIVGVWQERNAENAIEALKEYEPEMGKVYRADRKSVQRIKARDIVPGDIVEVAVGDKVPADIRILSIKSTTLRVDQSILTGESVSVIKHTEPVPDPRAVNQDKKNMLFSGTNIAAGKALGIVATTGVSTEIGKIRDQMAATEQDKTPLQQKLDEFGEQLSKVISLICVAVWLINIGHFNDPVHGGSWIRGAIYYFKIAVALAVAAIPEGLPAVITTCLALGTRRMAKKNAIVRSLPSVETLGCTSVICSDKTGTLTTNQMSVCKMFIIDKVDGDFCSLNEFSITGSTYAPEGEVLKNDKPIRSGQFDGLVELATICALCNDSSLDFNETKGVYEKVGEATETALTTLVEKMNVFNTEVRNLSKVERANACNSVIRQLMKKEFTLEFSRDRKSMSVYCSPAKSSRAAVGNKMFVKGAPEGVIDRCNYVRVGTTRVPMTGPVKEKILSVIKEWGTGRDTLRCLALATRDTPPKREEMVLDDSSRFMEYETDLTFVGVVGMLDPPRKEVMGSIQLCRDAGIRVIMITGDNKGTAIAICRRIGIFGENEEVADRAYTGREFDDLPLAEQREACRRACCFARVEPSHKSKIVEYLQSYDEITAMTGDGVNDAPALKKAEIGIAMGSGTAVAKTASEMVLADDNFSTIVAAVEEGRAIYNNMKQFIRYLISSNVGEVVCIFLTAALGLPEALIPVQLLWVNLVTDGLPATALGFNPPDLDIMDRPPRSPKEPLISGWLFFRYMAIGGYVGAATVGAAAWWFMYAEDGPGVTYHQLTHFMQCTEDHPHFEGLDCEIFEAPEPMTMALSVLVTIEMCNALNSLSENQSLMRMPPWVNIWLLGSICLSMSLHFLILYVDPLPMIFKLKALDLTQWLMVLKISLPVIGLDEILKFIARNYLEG

`OC(Cn1ccnc1)Cn1c2ccc(Cl)cc2c2cc(Cl)ccc21` (stereo not drawn) [Compound 5, 1-(3,6-dichloro-9H-carbazol-9-yl)-3-(1H-imidazol-1-yl)propan-2-ol]: 10.7 ± 2.2 µM corresponded to half-maximal inhibition in assay [1] (IC50). The MIC in assay [2] is 24 µM (≈ 8.65 µg/mL); in assay [3] it was above 75 µM; in assay [4] it was above 75 µM; in assay [5], above 75 µM; in assay [6], 24 µM (≈ 8.65 µg/mL); in assay [7] it was above 75 µM. Moreover, the MFC in assay [2] was above 75 µM; in assay [3] it was above 75 µM; in assay [4] it was above 75 µM; in assay [5], above 75 µM; in assay [6], 75 µM (≈ 27 µg/mL).
Turning to `OC(Cn1cncn1)Cn1c2ccc(Cl)cc2c2cc(Cl)ccc21` (stereo not drawn) [Compound 6, 1-(3,6-dichloro-9H-carbazol-9-yl)-3-(1H-1,2,4-triazol-1-yl)propan-2-ol], the IC50 in assay [1] was determined as 20.3 ± 3.6 µM. The MIC in assay [2] is 75 µM (≈ 27.1 µg/mL); in assay [3], above 75 µM; in assay [4] it was above 75 µM; in assay [5], above 75 µM; in assay [6], 75 µM (≈ 27.1 µg/mL); in assay [7], above 75 µM. The MFC in assay [2], in assay [3], in assay [4], in assay [5] and in assay [6] was above 75 µM in each case.
Take `OC(CN1CCOCC1)Cn1c2ccc(Cl)cc2c2cc(Cl)ccc21` (stereo not drawn) [Compound 7, 1-(3,6-dichloro-9H-carbazol-9-yl)-3-morpholinopropan-2-ol]: in assay [1] (setting [8]), the IC50 was found to be 19.6 ± 7.2 µM. Also, the MIC in assay [2] was 75 µM (≈ 28.4 µg/mL); in assay [3], above 75 µM; in assay [4], above 75 µM; in assay [5], above 75 µM; in assay [6], 24 µM (≈ 9.1 µg/mL); in assay [7] it was above 75 µM. In addition, the MFC in assay [2] was 75 µM (≈ 28.4 µg/mL); in assay [3] it was above 75 µM; in assay [4], above 75 µM; in assay [5], above 75 µM; in assay [6] it was 24 µM (≈ 9.1 µg/mL).
On to `CN1CCN(CC(O)Cn2c3ccc(Cl)cc3c3cc(Cl)ccc32)CC1` (stereo not drawn) [Compound 8, 1-(3,6-dichloro-9H-carbazol-9-yl)-3-(4-methylpiperazin-1-yl)propan-2-ol], for which the midpoint of inhibition in assay [1], the IC50, lay at 36.8 ± 12.2 µM. Also, the MIC in assay [2] was 68 µM (≈ 26.7 µg/mL); in assay [3], 42 µM (≈ 16.5 µg/mL); in assay [4], 58 µM (≈ 22.8 µg/mL); in assay [5], 75 µM (≈ 29.4 µg/mL); in assay [6], 7.5 µM (≈ 2.94 µg/mL); in assay [7], above 75 µM. The minimum fungicidal concentration (MFC) in assay [2] is 75 µM (≈ 29.4 µg/mL); in assay [3], 75 µM (≈ 29.4 µg/mL); in assay [4] it was 75 µM (≈ 29.4 µg/mL); in assay [5], above 75 µM; in assay [6], 7.5 µM (≈ 2.94 µg/mL).
Regarding `O=C(O)C1CCN(CC(O)Cn2c3ccc(Cl)cc3c3cc(Cl)ccc32)CC1` (stereo not drawn) [Compound 9, 1-(3-(3,6-dichloro-9H-carbazol-9-yl)-2-hydroxypropyl)piperidine-4-carboxylic acid], inhibition in assay [1] was half-maximal at 97.6 ± 25.7 µM (IC50). In addition, the MIC in assay [2], in assay [3], in assay [4], in assay [5], in assay [6] and in assay [7] was above 75 µM each time. Moreover, the MFC in assay [2], in assay [3], in assay [4], in assay [5] and in assay [6] was above 75 µM throughout.
On to `CCC(C)NCC(O)Cn1c2ccc(Cl)cc2c2cc(Cl)ccc21` (stereo not drawn) [Compound 10, 1-(sec-butylamino)-3-(3,6-dichloro-9H-carbazol-9-yl)propan-2-ol], for which the IC50 in assay [1] (setting [8]) stood at 0.3 ± 0.1 µM. For the same compound, the MIC in assay [2] was 3.7 µM (≈ 1.35 µg/mL); in assay [3], 1.2 µM (≈ 0.438 µg/mL); in assay [4] it was 5.6 µM (≈ 2.05 µg/mL); in assay [5] it was 2.9 µM (≈ 1.06 µg/mL); in assay [6], 0.4 µM (≈ 0.146 µg/mL); in assay [7], 12 µM (≈ 4.38 µg/mL). The MFC was determined as 3.8 µM (≈ 1.39 µg/mL) in assay [2]; 3.8 µM (≈ 1.39 µg/mL) in assay [3]; 7.9 µM (≈ 2.89 µg/mL) in assay [4]; 3.8 µM (≈ 1.39 µg/mL) in assay [5]; 1.2 µM (≈ 0.438 µg/mL) in assay [6].
Compound `COc1ccc2c(c1)c1cc(OC)ccc1n2CC(O)CN1CCN(C)CC1` (stereo not drawn) [Compound 11, 1-(3,6-dimethoxy-9H-carbazol-9-yl)-3-(4-methylpiperazin-1-yl)propan-2-ol] gave an IC50 in assay [1] above 167 µM. Also, the MIC in assay [2], in assay [3], in assay [4], in assay [5], in assay [6] and in assay [7] was above 75 µM in each case. Moreover, the MFC in assay [2], in assay [3], in assay [4], in assay [5] and in assay [6] was above 75 µM each time.
Consider `CN1CCN(CC(O)Cn2c3ccc(C#N)cc3c3cc(C#N)ccc32)CC1` (stereo not drawn) [Compound 12, 9-(2-hydroxy-3-(4-methylpiperazin-1-yl)propyl)-9H-carbazole-3,6-dicarbonitrile], for which, in assay [1], the IC50 worked out at 92.7 ± 13.1 µM. For the same compound, the MIC in assay [2], in assay [3], in assay [4], in assay [5], in assay [6] and in assay [7] was above 75 µM in each case. Also, the MFC in assay [2], in assay [3], in assay [4], in assay [5] and in assay [6] was above 75 µM throughout.
For the compound `CN1CCN(CC(O)Cn2c3ccc(O)cc3c3cc(O)ccc32)CC1` (stereo not drawn) [Compound 13, 9-(2-hydroxy-3-(4-methylpiperazin-1-yl)propyl)-9H-carbazole-3,6-diol], the IC50 in assay [1] is above 167 µM. Also, the MIC in assay [2], in assay [3], in assay [4], in assay [5], in assay [6] and in assay [7] was above 75 µM in each case. For the same compound, the minimum fungicidal concentration (MFC) in assay [2], in assay [3], in assay [4], in assay [5] and in assay [6] was above 75 µM each time.
